Assay results: patent US9907760B2 (LIBRAGEN, priority 2010, dated 2018)

How the values were obtained:
Format in all cases: cell-based
human skin explants = test: General morphology of living human skin explants (Masson trichrome)
Description: (§1) In particular, the following parameters were evaluated: • general skin morphology after staining with Masson trichrome, • acid glycosaminoglycan (GAG) content after alcian blue staining, • expression level of the hyaluronic acid CD44 receptor after immunolabeling of this receptor.
(§2) Thirty-three explants (approximately 10 mm in diameter) were taken from a person (P712AB36) undergoing abdominoplasty. The explants were divided into 11 groups of three explants and placed in special skin explant survival medium.
(§3) RetinOx+Day cream was applied on the explants at 1 mg/cm^2 on days D0, D2, D3, D6 and D8.
(§4) On D0, D2, D3, D6 and D8, 30 μA of products P1, P2 and P3 were deposited on filter paper disks placed on the explants.
(§5) On D0, the three explants in group CO were sampled and cut in two. One-half was fixed in ordinary Bouin's solution and the other half stored at −80° C. On D6 and D10, three explants from each group were sampled and treated in the same manner.
(§6) After 48 hours of fixing in ordinary Bouin's solution, samples were dried and impregnated in paraffin using a Leica 1020 automated tissue processor, then embedded according to operating procedure MO-H-153 using a Leica EG 1160 embedding station. 5 μm sections were prepared according to operating procedure MO-H-173 using a Leica RM 2125 Minot microtome and mounted on Superfrost® histologic glass microscope slides.
General morphology was studied on paraffin sections stained with Masson trichrome, Goldner variant, according to operating procedure MO-H-157.

normal human fibroblasts [1] = test: Hyaluronic acid production by normal human fibroblasts treated with supernatant of treated keratinocytes (HA-ELISA); settings: supernatant on fibroblasts 48 hrs; for % stimulation of hyaluronic acid synthesis: vs Control
Description: Normal human dermal fibroblasts were cultured to confluence. Cells were treated for 48 hours with supernatants of normal human keratinocytes previously grown in the presence of the test products. The fibroblast supernatants, containing hyaluronic acid, were collected and assayed immediately. Hyaluronic acid was quantified with an ELISA microtiter plate. Protein content was determined for each well of the microtiter plate.
Primocultures of normal human keratinocytes (NHK) were obtained from cells isolated from skin specimens from plastic surgery.
NHK were seeded at a density of 130,000 cells/well in specific KSFM culture medium (Gibco®, Invitrogen) in a 24-well plate. The plate was placed in a humid incubator (37° C., 5% CO2) for 24 hours.
Primocultures of normal human fibroblasts (NHF) were obtained from cells isolated from skin specimens from plastic surgery.
NHF were seeded at a density of 90,000 cells/well in E-199 culture medium supplemented with 0.5% FCS (Gibco® Invitrogen) in a 24-well plate. The plate was placed in a humid incubator (37° C., 5% CO2) for 24 hours.
The two cell types—NHK and NHF—were plated 48 hours apart.
The different products at the respective concentrations (diluted in KSFM medium, 600 μl) were contacted with NHK cells for 48 hours. Untreated cells were used as the control condition. Two plates were used to separately test NAG, and NAG+vitamin A propionate, on the one hand, and NAG6P, and NAG6P+vitamin A propionate, on the other hand.
Each treatment condition was evaluated on three wells of NHK cells.
After 48 hours, a fraction of NHK cell supernatant (300 μl/well) was removed and transferred well for well into NHF cell supernatants (300 μl E-199/well−fresh medium without FCS).
This gave a final volume of 600 μl/well (50:50 ratio of KSFM/E-199 medium) which remained on the NHF cells for 48 hours.
After 48 hours of treatment, the NHF cell supernatant was collected and centrifuged.
Hyaluronic acid was assayed in the cell supernatants as described in example 1.
The assay was performed in duplicate for each well.
Optical densities (OD) measured on each sample were plotted on a graph (specific standard curve in the kit). The hyaluronic acid concentration was expressed in ng/ml.
The amount of hyaluronic acid released by the cells was determined for each well and for each treatment condition, relative to the cell content expressed as μg of protein. Thus, the final result was expressed as ng/ml of hyaluronic acid per μg of protein.
(§7) A mean value was calculated for wells treated with the same concentration of test product. This mean was compared with the mean of the control wells (Student t test−comparison of means−significant difference at 95% if p<0.05* and at 99% if p<0.01**).
The percent stimulation induced by the test products was determined by comparing the mean values of the control and treatment conditions: % Stimulation=(Treated−Control)/Control

normal human fibroblasts [2] = test: Proliferation of normal human fibroblasts treated with supernatant of treated keratinocytes (Cell Proliferation ELISA, BrdU); settings: supernatant on fibroblasts 48 hrs
Description: This experiment evaluated the proliferation of normal human fibroblasts (dermal primocultures) after 48 hours of treatment with supernatant transferred from human keratinocytes.
The “Cell Proliferation ELISA, BrdU” test quantifies cell proliferation by measuring incorporation of bromodeoxyuridine (BrdU) during DNA synthesis followed by luminescence detection.
Cells were placed in the presence of the treatment for a specified time (incubator at 37° C., 5% CO2). The pyrimidine analogue 5-bromo-2′-deoxyuridine (BrdU) was then added and the cells were further incubated (37° C., 5% CO2) for a minimum of 2 hours, during which time BrdU is incorporated in place of thymidine into the DNA of proliferating cells.
The culture medium was removed, then the cells were fixed and the DNA denatured at the same time (antibody accessibility). An anti-BrdU-POD (peroxidase) antibody was added; this antibody binds to BrdU in newly synthesized DNA. The immune complex was then detected by addition of luminol substrate with measurement of luminescence (Genios, Tecan).
NHF were seeded at a density of 5,000 cells/well in E-199 culture medium (Gibco® Invitrogen) in a 96-well Optilux white plate (BD Falcon 353947). The plate was placed in a humid incubator (37° C., 5% CO2) for 24 hours.
The different products at the respective concentrations (diluted in KSFM culture medium, 600 μl) were contacted with NHK cells for 48 hours. Control cells were left untreated. Each treatment conditions was evaluated on three wells of NHK cells.
After 48 hours, a fraction of the NHK cell supernatant was removed. Each sample of supernatant (2 times 100 μl) from a well on the NHK plate (24 wells) was transferred to two wells in the NHF plate already containing 100 μl of E-199 medium per well. […]
Cell proliferation was quantified by the method described in the “Cell Proliferation ELISA, BrdU” kit (Roche Applied Science No. 11669915001). This is an immunological assay with luminescence detection (Genios, Tecan).
The means of the luminescence values (RLU/s) of six wells with the same treatment condition were determined. […] Proliferation of treated cells was expressed as a percentage of the control(untreated cells−100%)(OD treated/OD control×100).

normal human fibroblasts [3] = test: Procollagen 1 production by normal human fibroblasts treated with supernatant of treated keratinocytes (EIA); settings: supernatant on fibroblasts 48 hrs; for % stimulation (procollagen 1): vs Control
Description: This experiment was carried out according to the method described in example 3. Fibroblast supernatants, containing procollagen 1, were collected and assayed immediately for procollagen 1 by means of an EIA microtiter plate.
After 48 hours of treatment, NHF cell supernatants were collected and centrifuged.
Procollagen 1 was assayed in the cell supernatants by the method described in the Procollagen Type 1 C-peptide EIA kit (MK101, Takara). This is an EIA assay with spectrophotometric detection at 450 nm (Safire, Tecan).
Duplicate determinations were carried out for two wells whereas the third well was assayed only once.
Optical densities (OD) measured on each sample were plotted on a graph (specific standard curve in the kit). The procollagen 1 concentration was expressed in ng/ml.
As in example 3, the protein content was determined in the cell pellets of the supernatants for which procollagen 1 was assayed.
as §7, with “Thus, the final result was expressed as ng/ml of procollagen 1 per μg of protein. A” for “A”, “means, significant” for “means−significant”
The percent stimulation produced by the test products was determined by comparing the mean values of the control and treatment conditions: % Stimulation=(Treated−Control)/Control

[4] = system: acid GAGs in the papillary dermis; test: Acid glycosaminoglycan (GAG) content of human skin explants (alcian blue staining, image analysis)
Description: as §1, §2, §3, §4, §5, §6
Acid GAGs were visualized with alcian blue staining. They were present throughout the papillary dermis.
In this zone, the GAGs under study are stained blue and correspond to acid GAGs.
The intensity of staining was quantified by image analysis.
Acid GAGs were quantified by image analysis. The results are expressed as the percentage of the analyzed area in Table 10 below.

[5] = system: hyaluronic acid CD44 receptor; test: Expression of the hyaluronic acid CD44 receptor in human skin explants (immunolabeling)
Description: as §1, §2, §3, §4, §5
Frozen sections were labeled for the CD44 receptor using mouse anti-CD44 monoclonal antibody (Invitrogen MHC D4400) at 1:100 dilution incubated for 1 hour at room temperature with a biotin/streptavidin amplifier system with FITC. Nuclei were counterstained with propidium iodide.

## CC(=O)N[C@H]1C(O)O[C@H](COP(=O)(O)O)[C@@H](O)[C@@H]1O (some centres unmarked) [NAG6P, N-acetylglucosamine-6-phosphate]
Human skin explants; D10, NAG6P
  General morphology: considerable modifications of epidermal morphology
Human skin explants; D10, NAG6P 0.01% (product P3)
  General morphology: clear reorganization/strengthening of the dermal-epidermal junction
Human skin explants; D10, NAG6P, listed as N-acetylglucosamine-6-phosphate
  General morphology: does not cause acanthosis
Normal human fibroblasts [1]; 5 mM on keratinocytes 48 hrs
  Hyaluronic acid: 3524.1 ± 198.6 ng/mL
  Hyaluronic acid (ng/ml/μg prot.): 401.7 ± 38.3 ng/ml/μg prot.
  % stimulation of hyaluronic acid synthesis: 7%
Normal human fibroblasts [1]; 10 mM on keratinocytes 48 hrs
  Hyaluronic acid: 3507.6 ± 213.3 ng/mL
  Hyaluronic acid (ng/ml/μg prot.): 382.9 ± 20.5 ng/ml/μg prot.
  % stimulation of hyaluronic acid synthesis: 2%
Normal human fibroblasts [2]; 5 mM on keratinocytes 48 hrs
  RLU: 4985 ± 184 RLU
Normal human fibroblasts [2]; 10 mM on keratinocytes 48 hrs
  RLU: 4903 ± 377 RLU
Normal human fibroblasts [3]; 5 mM on keratinocytes 48 hrs
  Procollagen 1: 653.4 ± 36.6 ng/mL
  Procollagen 1 (ng/ml/μg prot.): 74.6 ± 5.3 ng/ml/μg prot.
  % stimulation (procollagen 1): 2%
Normal human fibroblasts [3]; 10 mM on keratinocytes 48 hrs
  Procollagen 1: 677.7 ± 64.6 ng/mL
  Procollagen 1 (ng/ml/μg prot.): 72.7 ± 4.4 ng/ml/μg prot.
  % stimulation (procollagen 1): −1%
[4]; D6, NAG6P 1% to 0.01%
  Acid GAGs, visual analysis: moderate along the DEJ and present throughout the papillary dermis, in a dose-dependent manner
[4]; D10, NAG6P 0.01%
  Percentage of area occupied by acid GAGs in the papillary dermis, % of analyzed area, Mean: 14.0%
[4]; D10, NAG6P 0.1%
  Percentage of area occupied by acid GAGs in the papillary dermis, % of analyzed area, Mean: 16.3%
[4]; D10, NAG6P 1%
  Percentage of area occupied by acid GAGs in the papillary dermis, % of analyzed area, Mean: 21.0%
[4]; D10, NAG6P 1% to 0.01%
  Acid GAGs, visual analysis: moderately present along the DEJ and throughout the papillary dermis, in a dose-dependent manner
[5]; D6, NAG6P 0.01%
  CD44 expression: overexpression was very moderate
[5]; D6, NAG6P 0.1%
  CD44 expression: mildly overexpressed
[5]; D6, NAG6P 1%
  CD44 expression: mildly overexpressed
[5]; D10, NAG6P 0.01%, epidermis and papillary dermis
  CD44 expression: overexpression was very clear
